Assays:
[1] = tested on: AP activity (Wieslab); experiment: First in human (FIH) studies: suppression of AP activity (Wieslab); assay type: in vivo
[2] = Human absorption, distribution, metabolism, and excretion (ADME) study in healthy volunteers; assay type: in vivo
[3] = tested on: organic anion-transporting polypeptide (OATP) hepatic uptake transporter; experiment: Preclinical studies of systemic disposition: hepatic uptake transporter; assay type: in vitro ADME
From the text: In addition, some contribution from direct kidney (approximately 20%) and direct biliary excretion (around 5 to 10%) is anticipated. Iptacopan is also a substrate for the organic anion-transporting polypeptide (OATP) hepatic uptake transporter. […] Typical examples are digoxin, quinidine, paclitaxel, fentanyl and phenytoin. However, if no alternative treatment is available, a staggered dosing approach is recommended (refer to Section 6.2.1.1). • · Concomitant medication listed under exclusion criteria 25 and 26 is prohibited except for the condition specified in the criterion.

[4] = Food effect in study CLNP023X2101; assay type: in vivo
[5] = tested on: AP; conditions: multiple in vitro and in vivo non-clinical studies (Schubart 2019); cited from earlier work

For `CCO[C@H]1CCN(Cc2c(OC)cc(C)c3[nH]ccc23)[C@H](c2ccc(C(=O)O)cc2)C1` [iptacopan, 4-((2S,4S)-(4-ethoxy-1-((5-methoxy-7-methyl-1H-indol-4-yl)methyl)piperidin-2-yl))benzoic acid], the “inhibition of the AP (Wieslab assay) predicted by exposure-response model” value ([1]; about 200 mg b.i.d, in most participants, model developed with FIH data in healthy volunteers) was over 90%, the “suppression of the AP (inhibition), sustained” value ([1]; over 14 days of dosing at 200 mg b.i.d) was at least 80% and the “inhibition of AP activity (Wieslab)” value ([1]; two hours post-dose, single dose of 200 mg, FIH study participants) was at least 80%. The “direct kidney excretion, share of overall iptacopan dose” value [2] was 20-25%, the “kidney contribution to the overall iptacopan clearance” value [2] was 20-25% and the “substrate of OATP hepatic uptake transporter” value [3] was “substrate”. The food effect [4] was “no food effect” and the “inhibition of the AP” value [5] was “demonstrated inhibition of the AP”.

— patent US20240238266A1 (Novartis AG, priority 2021, published 2024)
